Results published in patent publication US20070128217A1 (priority 2003, published 2007).

What was measured:
[1] = system: antibodies in sera from SARS patients (sera 1a, 1b, 2, 6, 37, 62, London, SARS-yellow, SARS-green); format: binding, human; parameters: Binding of serum 6 to linear peptides of protein X1 of SARS-CoV Urbani / Binding of serum 37 to linear peptides of protein X1 of SARS-CoV Urbani / Binding of serum 6 to looped/cyclic peptide (PEPSCAN-ELISA) / Binding of serum 37 to looped/cyclic peptide (PEPSCAN-ELISA) / Binding of serum 37 to looped/cyclic peptides of protein X1 of SARS-CoV Urbani / Binding of serum 6 to linear peptides of protein X2 / Binding of serum 37 to linear peptides of protein X2 / Binding of serum 37 to looped/cyclic peptides of protein X2 of SARS-CoV Urbani / Binding of serum 6 to linear peptides of protein M of SARS-CoV Urbani / Binding of serum 37 to linear peptides of protein M of SARS-CoV Urbani / Binding of serum 6 to looped/cyclic peptides of protein M of SARS-CoV Urbani / Binding of serum 37 to looped/cyclic peptides of protein M of SARS-CoV Urbani / Binding of serum 6 to linear peptides of protein X3 of SARS-CoV Urbani / Binding of serum 37 to linear peptides of protein X3 of SARS-CoV Urbani / Binding of serum 37 to looped/cyclic peptides of protein X3 of SARS-CoV Urbani / Binding of serum 6 to linear peptides of protein X4 of SARS-CoV Urbani / Binding of serum 37 to linear peptides of protein X4 of SARS-CoV Urbani / Binding of serum 37 to looped/cyclic peptides of protein X4 of SARS-CoV Urbani / Binding of serum 6 to linear peptides of protein X5 of SARS-CoV Urbani / Binding of serum 37 to linear peptides of protein X5 of SARS-CoV Urbani / Binding of serum 37 to looped/cyclic peptides of protein X5 of SARS-CoV Urbani / Binding of serum 6 to linear peptides of protein N of SARS-CoV Urbani / Binding of serum 37 to linear peptides of protein N of SARS-CoV Urbani / Binding of serum 6 to linear peptide (PEPSCAN-ELISA) / Binding of serum 1a to looped/cyclic peptides of protein N of SARS-CoV Urbani / Binding of serum 1b to looped/cyclic peptides of protein N of SARS-CoV Urbani / Binding of serum 2 to looped/cyclic peptides of protein N of SARS-CoV Urbani / Binding of serum 6 to looped/cyclic peptides of protein N of SARS-CoV Urbani / Binding of serum 37 to looped/cyclic peptides of protein N of SARS-CoV Urbani / Binding of serum 62 to looped/cyclic peptides of protein N of SARS-CoV Urbani / Binding of serum London to looped/cyclic peptides of protein N of SARS-CoV Urbani / Binding of serum SARS-green to looped/cyclic peptides of protein N of SARS-CoV Urbani: unit not given here
[2] = system: control sera (pooled serum of ten healthy LUMC hospital workers; commercial negative donor pooled serum from the Dutch bloodbank); format: binding, human; parameters: Binding of Control serum LUMC to linear peptides / Binding of Control serum Blood-bank to linear peptides / Binding of Control serum LUMC to looped peptides / Binding of Control Serum Blood-Bank to Looped peptides / Binding of Control serum LUMC to linear peptides of the protein M of SARS-CoV Urbani / Binding of Control serum Blood-bank to linear peptides of the protein M of SARS-CoV Urbani / Binding of Control serum LUMC to looped peptides of the protein M of SARS-CoV Urbani / Binding of Control Serum Blood-Bank to Looped peptides of the protein M of SARS-CoV Urbani: unit not given here
[3] = system: rabbit serum obtained by immunizing a rabbit with the SARS-CoV strain Frankfurt 1; format: binding; parameters: Binding of a rabbit serum to linear peptides / Binding of a rabbit serum to looped peptides / Rabbit serum linear peptides / Rabbit serum looped peptides / Binding of a rabbit serum to linear peptides of protein N of SARS-CoV Urbani (Rabbit serum linear peptides) / Binding of a rabbit serum to looped/cyclic peptides of protein N of SARS-CoV Urbani (Rabbit serum looped peptides): unit not given here
[4] = system: recombinant human anti-SARS-CoV antibody 03-018; format: binding; parameters: Binding of antibody 03-018 to linear peptides of the N protein of SARS-CoV Urbani / Binding of antibody 03-018 to looped/cyclic peptides of the N protein of SARS-CoV Urbani: unit not given here

| Sequence | Binding of serum 1a to linear peptides of protein N of SARS-CoV Urbani [1] | Binding of serum 1a to looped/cyclic peptides of protein N of SARS-CoV Urbani [1] | Binding of serum 1b to linear peptides of protein N of SARS-CoV Urbani [1] | Binding of serum 1b to looped/cyclic peptides of protein N of SARS-CoV Urbani [1] | Binding of serum 2 to linear peptides of protein N of SARS-CoV Urbani [1] | Binding of serum 2 to looped/cyclic peptides of protein N of SARS-CoV Urbani [1] | Binding of serum 6 to linear peptides of protein N of SARS-CoV Urbani [1] | Binding of serum 6 to looped/cyclic peptides of protein N of SARS-CoV Urbani [1] | Binding of serum 37 to linear peptides of protein N of SARS-CoV Urbani [1] | Binding of serum 37 to looped/cyclic peptides of protein N of SARS-CoV Urbani [1] | Binding of serum 62 to linear peptides of protein N of SARS-CoV Urbani [1] | Binding of serum 62 to looped/cyclic peptides of protein N of SARS-CoV Urbani [1] | Binding of serum London to linear peptides of protein N of SARS-CoV Urbani [1] | Binding of serum London to looped/cyclic peptides of protein N of SARS-CoV Urbani [1] | Binding of serum SARS-green to linear peptides of protein N of SARS-CoV Urbani [1] | Binding of serum SARS-green to looped/cyclic peptides of protein N of SARS-CoV Urbani [1] | Binding of serum SARS-yellow to linear peptides of protein N of SARS-CoV Urbani [1] | Binding of serum SARS-yellow to looped/cyclic peptides of protein N of SARS-CoV Urbani [1] | Binding of Control Serum Blood-Bank to Looped peptides [2] | Binding of Control serum Blood-bank to linear peptides [2] | other results |
| --- | --- | --- | --- | --- | --- | --- | --- | --- | --- | --- | --- | --- | --- | --- | --- | --- | --- | --- | --- | --- | --- |
| KDHIGTRNPNNNAAT | 0.3 | 0.4 | 0.2 | 0.3 | 0.4 | 0.5 | 0.3 | 0.4 | 0.9 | 0.5 | 0.8 | 0.4 | 0.5 | 0.4 | 0.5 | 0.1 | 0.8 | 0.3 | 0.6 | 0.9 | Binding of Control serum LUMC to linear peptides [2]: 0.8; Binding of Control serum LUMC to looped peptides [2]: 0.6; Binding of a rabbit serum to linear peptides of protein N of SARS-CoV Urbani (Rabbit serum linear peptides) [3]: 0.1; Binding of a rabbit serum to looped/cyclic peptides of protein N of SARS-CoV Urbani (Rabbit serum looped peptides) [3]: 0.2; Binding of antibody 03-018 to linear peptides of the N protein of SARS-CoV Urbani [4]: 0.1; Binding of antibody 03-018 to looped/cyclic peptides of the N protein of SARS-CoV Urbani [4]: 0.2 |
| LNKHIDAYKTFPPTE | 0.2 | 0.2 | 0.1 | 0.1 | 0.1 | 0.2 | 0.1 | 0.1 | 0.7 | 0.4 | 0.5 | 0.3 | 0.4 | 0.3 | 0.4 | 0.2 | 0.5 | 0.1 | – | – | Control Serum Blood-Bank Looped peptides [2]: 0.4; Control serum Blood-bank linear peptides [2]: 0.5; Control serum LUMC linear peptides [2]: 0.5; Control serum LUMC looped peptides [2]: 0.4; Binding of a rabbit serum to linear peptides of protein N of SARS-CoV Urbani (Rabbit serum linear peptides) [3]: 0.1; Binding of a rabbit serum to looped/cyclic peptides of protein N of SARS-CoV Urbani (Rabbit serum looped peptides) [3]: 0.4; Binding of antibody 03-018 to linear peptides of the N protein of SARS-CoV Urbani [4]: 0.1; Binding of antibody 03-018 to looped/cyclic peptides of the N protein of SARS-CoV Urbani [4]: 0.2 |
| GPQSNQRSAPRITFG | 0.2 | 0.3 | 0.1 | 0.2 | 0.2 | 0.3 | 0.1 | 0.3 | 0.6 | 0.6 | 0.7 | 0.4 | 0.4 | 0.4 | 0.4 | 0.3 | 0.5 | 0.8 | 0.7 | 0.6 | Binding of Control serum LUMC to linear peptides [2]: 0.5; Binding of Control serum LUMC to looped peptides [2]: 0.8; Recognition of the peptide by the rabbit serum [3]: also recognized; Recognition of the peptide by antibody 03-018 [4]: recognized |
| LSPRWYFYYLGTGPE | 0.3 | 0.3 | 0.3 | 0.3 | 0.2 | 0.5 | 0.2 | 0.2 | 1.0 | 0.8 | 0.9 | 0.8 | 0.5 | 0.3 | 0.9 | 0.6 | 0.6 | 0.5 | 0.5 | 0.7 | Binding of Control serum LUMC to linear peptides [2]: 0.8; Binding of Control serum LUMC to looped peptides [2]: 0.6; Binding of a rabbit serum to linear peptides of protein N of SARS-CoV Urbani (Rabbit serum linear peptides) [3]: 0.2; Binding of a rabbit serum to looped/cyclic peptides of protein N of SARS-CoV Urbani (Rabbit serum looped peptides) [3]: 1.1; Binding of antibody 03-018 to linear peptides of the N protein of SARS-CoV Urbani [4]: 0.1; Binding of antibody 03-018 to looped/cyclic peptides of the N protein of SARS-CoV Urbani [4]: 0.2 |
